Experimental data from patent publication US5789419A, “4-quinolinone derivative or salt thereof” (SS Pharmaceutical Co., Ltd., priority 1994, dated 1998).

The compounds below were run on endothelium-ablated specimen of rat thoracic aorta (assay: Effect of inhibiting contraction caused by 30 mM K on endothelium-ablated specimen of rat thoracic aorta). Conditions: 10 min, cumulative application at intervals of 10 minutes, 37° C., 10^-4 M papaverine = 100% relaxation, read-out: median inhibitory concentration (IC50).
Assay type: cell-based
Description: (Effect of inhibiting contraction caused by 30 mM K on endothelium-ablated specimen of rat thoracic aorta)
A thoracic aorta was enucleated from a rat (weight: 129-492 g) and cut into lengths of 3 mm. Cotton in the form of a paper string was put in a lumen of each of ring specimens, and the inner surface of the ring specimen was rubbed several times with the cotton, thereby ablating an endothelium from the thoracic aorta specimen. This specimen was incubated at 37° C. and suspended in 10 ml of a Krebs-Henseleit solution, into which a mixed gas had been introduced, with a load of 2 g applied thereto. The tension thereof was isometrically recorded in a recorder through an FD transducer and a dynamic strain gage. After at least 60 minutes went on after the suspension, and the sample was stabilized, 10^-7 M noradrenaline was applied several times to the specimen. Under contraction caused by 10^-7 M noradrenaline, 10^-7 M acetylcholine was applied to the specimen. A specimen which manifested no relaxing effect at this time was used in an experiment as an endothelium-ablated specimen. Each of agents (compounds of Compound Numbers shown in Table 20 and Cromakalim) to be tested was cumulatively applied at intervals of 10 minutes from the time 30 mM K^+ had been applied to such a specimen, and the contraction of the specimen had been fixed, thereby calculating a median inhibitory concentration (IC50). Incidentally, 10^-4 M papaverine was applied to confirm 100% relaxing affect. The agents to be tested were dissolved (5×10^-2 M in dimethyl sulfoxide and diluted with purified water before their use.

IC50 [nM]	Structure (SMILES)
18.8	CC(=O)NN1CC(C)(C)C(=O)c2ccc(S(=O)(=O)C(F)(F)F)cc21 [Compound No. 44, 1-Acetoamino-2,3-dihydro-3,3-dimethyl-7-(trifluoromethyl) sulfonyl-4(1H)-quinolinone]
66.2	CC1(C)CN(NC(=O)c2cccnc2)c2cc(C(F)(F)F)ccc2C1=O [compound 23]
104	CCC(=O)NN1CC(C)(C)C(=O)c2ccc(OC(F)(F)F)cc21 [compound 29]
100	CC(=O)NN1CC(C)(C)C(=O)c2ccc(C(F)(F)F)cc21 [compound 21]
49.2	CC1(C)CN(NC(=O)c2cccnc2)c2cc(OC(F)(F)F)ccc2C1=O [compound 30]
86.9	CC1(C)CN(N2CCCC2=O)c2cc(S(=O)(=O)c3ccccc3)ccc2C1=O [Compound No. 63, 2,3-Dihydro-3,3-dimethyl-7-phenylsulfonyl-1-(2-oxopyrrolidin-1-yl)-4(1H)-quinolinone]
48.2	CC(=O)NN1CC(C)(C)C(=O)c2ccc(OC(F)(F)F)cc21 [compound 28]
83.2	CC(=O)NN1CC(C)(C)C(=O)c2ccc(S(=O)(=O)c3ccccc3)cc21 [Compound No. 53, 1-Acetoamino-2,3-dihydro-3,3-dimethyl-7-phenylsulfonyl-4(1H)-quinolinone]
130	CC1(C)Oc2ccc(C#N)cc2[C@@H](N2CCCC2=O)[C@@H]1O (racemic) [Cromakalim, (±)-trans-6-cyano-2,2-dimethyl-4-(2-oxopyrrolidin-1-yl)-3,4-dihydro-2H-1-benzopyran-3-ol, reference compound]
